In patent US20110281852A1 (priority 2010, published 2011):

Experiments:
GATA-3 = assay: Immunoblot, GATA-3 protein in 3T3-L1 cells; assay type: cell-based, mouse; conditions: DM + 1, 2, 4, 8 μM, 8 days, p<0.05
Procedure: Immunoblot Analysis: GATA-2 and GATA-3 protein expression were assessed by Western blot. […] The cells were washed twice with PBS, lysed in a lysis buffer (HEPES-Tx-PI buffer: 10 mM HEPES, 5 mM EDTA, 350 mM Sucrose, 1 ug/ml leupeptin, 1 ug/ml pepstatin, 1% Triton-X, 1 mM PMSF, diluted in water), processed with a 25G needle and centrifuged at 10,000 rpm for 5 min. Protein concentration was determined using the […] according to the Pierce Protein Assay Protocol. Total protein (50 μg) was used for GATA-2 and GATA-3 analysis and was separated by electrophoresis using BioRad Electrophoretic System (60 V for 1 hour followed by 90 V for 5 hours). The protein was then transferred to nitrocellulose membranes at 35 V overnight. The membrane was blocked for 1 hour at room temperature in 5% nonfat milk in Tris-buffered saline (TBS), then washed with Tween-20-TBS (TTBS, 0.1% Tween-20) three times (15 min, 5 min, 5 min), followed by incubation with primary antibodies of GATA-2 (dilution 1:500), GATA-3 (dilution 1:500), β-Actin (dilution 1:1000) at room temperature for 2 hours. The membrane was rinsed three times (15 min, 5 min, 5 min), then incubated at room temperature for 1 hour with Horseradish peroxidase-conjugated second antibody (1:10,000). The membrane was then incubated in ECL reagent for 1 minute. Protein was visualized using UVP image analysis system.

PPARγ = assay: Real-time RT-PCR, PPARγ mRNA in 3T3-L1; assay type: cell-based, mouse; conditions: 8 days
Description: (§1) Realtime RT-PCR: Real-time reverse transcriptase polymerase chain reaction (RT-PCR) analysis was used to measure mRNA expression of genes SREBP-1, PPARγ, C/EBPα, low density lipoprotein receptor (LDLR), Adiponectin, and fatty acid synthase (FAS) under the control of β-actin. Briefly, total RNA was isolated from 3T3-L1 cells following treatment for 8 days with Trizol reagent (Invitrogen, Carlsbad, Calif., USA) according to the manufacturer's instruction. RNA was quantified using absorption of light at 260 nm, and sample purity was checked by OD 260 nm/280 nm. 0.8 μg of total RNA from each sample was used for reverse transcription reaction using the TaqMan Reverse Transcription Reagents (Applied Biosystems, Foster City, Calif., USA) according to the manufacturers' instructions. PCR was done using the SYBR green Master Mix (Applied Biosystems, Foster City, Calif., USA) according to the manufacturers' instructions. The temperature cycling conditions of amplification were as follows: an initial step of denaturation at 95° C. for 10 min, 40 cycles of denaturation at 95° C. for 30 s, annealing at 55° C. for 30 s, and elongation at 72° C. for 30 s. Realtime RT-PCR was performed using Mx3000P Realtime Thermocyclers (Statagene, La Jolla, Calif., USA). The relative mRNA levels of these genes were calculated by 2-delta delta CT method and normalized with control groups.

[1] = system: fatty acid synthase (FAS); assay: Real-time RT-PCR, FAS mRNA in 3T3-L1; assay type: cell-based, mouse; conditions: 8 μM berberine + 50 μM risperidone, 8 days
Description: as §1

[2] = Serum total cholesterol assay in mice; assay type: in vivo, mouse
Procedure: Six mice per subgroup were obtained finally.
Serum glucose, triglyceride, cholesterol assay: Blood samples from each mouse were collected and serum was separated by centrifugation for the measurement of levels of glucose, triglyceride and total cholesterol. Serum glucose concentrations were analyzed using Glucose (HK) Assay Kit (Sigma-aldrich, Saint Louis, Mo., USA). Serum triglyceride concentrations were analyzed using Serum Triglyceride Determination Kit (Sigma-aldrich, Saint Louis, Mo., USA). Serum cholesterol concentrations were analyzed using Amplex® Red Cholesterol Assay Kit (Invitrogen, Carlsbad, Calif., USA). All experimental assays were done according to the manufacturer's instructions.

C/EBPα = assay: Immunoblot, C/EBPα protein in epididymal fat of FD mice; assay type: in vivo, mouse; conditions: berberine treatment
Procedure: RNA and protein purification and quantification from epididymal fat tissues: RNA and protein was isolated from 60 mg of epididymal fat tissues with Trizol (Invitrogen, Carlsbad, Calif., USA) following the protocol recommended by the manufacturers. RNA was dissolved in pure water and quantified at 260/280 nm, and sample integrity was checked by 1.5% agarose gel electrophoresis. Protein concentration was determined using the Micro BCA Protein Assay Kit (Fisher Scientific, Pittsburgh, Pa., USA) according to the manufacturer's instructions.
Immunoblot Analysis: Protein expression of GATA-2, GATA-3, PPARγ and C/EBPα in the control of β-actin was assessed by Western Blot. Protein samples from the same group were homogenized as previously reported (Hu and Davies, Phytomedicine (2009) 16:864-873). Protein (25 μg) was separated by polyacrylamide gel electrophoresis using the BioRad Electrophoretic System (60 V for 1 h followed by 90 V for 5 h). The proteins were then transferred to nitrocellulose membranes at 35 V overnight. […]

In the case of `COc1ccc2cc3[n+](cc2c1OC)CCc1cc2c(cc1-3)OCO2.[Cl-]` [berberine, Berberine (Chloride Form)], the GATA-3 protein expression (GATA-3) is reported as “increase”, the “decrease of PPARγ mRNA expression vs clozapine treated group” value (PPARγ; 8 μM berberine + 15 μM clozapine) is reported as 87.7% and the “decrease of PPARγ mRNA expression vs risperidone treated group” value (PPARγ; 8 μM berberine + 50 μM risperidone) is reported as 93.1%. For the same compound, the “decrease of FAS mRNA expression vs risperidone treated group” value [1] was 85.5%, the “reduction of serum total cholesterol level” value (“reduction” below) ([2]; FD mice, 0.75 mg/kg/day) was 18.7% and the “serum total cholesterol level” value ([2]; FD mice, 0.75 mg/kg/day, 36 days (control 152.4±15.2)) was 123.9 ± 16.5 mg/dL. For the same compound, the “reduction” value ([2]; FD mice, 1.5 mg/kg/day) was 22.2%, the “serum total cholesterol level” value ([2]; FD mice, 1.5 mg/kg/day, 36 days) was 118.5 ± 14.7 mg/dL and the “reduction” value ([2]; FD mice, 3 mg/kg/day) was 28%. The “serum total cholesterol level” value ([2]; FD mice, 3 mg/kg/day, 36 days) was 109.8 ± 22.7 mg/dL, the “serum total cholesterol level” value ([2]; ND mice, 3 mg/kg/day (control 96.5±16.5)) was 97.4 ± 18.3 mg/dL and the “quantitative protein expression of CEBP-α” value (C/EBPα) was “did not appear to be significantly changed”.
